Data as given in US20100152434A1, “Protein Kinase-binding Nucleosides and Associated Methods” (priority 2007, published 2010).

Experiments:
UO-31 = details: single dose (10 μM)
LOX IMVI = details: single dose (10 μM)
RXF 393 = details: RXF393; single dose (10 μM)
HOP-92 = details: single dose (10 μM)
MOLT-4 = details: single dose (10 μM)

CNC(=O)NC[C@H]1O[C@@H](n2cnc3c(NC(=O)Nc4ccccc4)ncnc32)C2OC(=O)C[C@H]21 (some centres unmarked) [Compound 33, 3′-(Carboxymethyl)-3′,5′-dideoxy-5′-[(N-methylcarbamoyl)amino]-N^6-(N-phenylcarbamoyl)adenosine-2′,3′-lactone]
anticancer activity (GI) (UO-31): potent and selective anticancer activities
anticancer activity (GI) (LOX IMVI): potent and selective anticancer activities
anticancer activity (GI) (RXF 393): potent and selective anticancer activities
anticancer activity (GI) (HOP-92): potent and selective anticancer activities
anticancer activity (GI) (MOLT-4): potent and selective anticancer activities
